Data published in article PMC10632401, “Cell-free biosynthesis combined with deep learning accelerates de novo-development of antimicrobial peptides” (Nature Communications, 2023).
No end group written: not given here.

What was measured:
[1] = tested on: E. coli; assay type: cell-based, Escherichia coli; conditions: daily passage from cells grown at half-MIC, n=3
[2] = tested on: B. subtilis PY79; conditions: PY79, 20 h
[3] = tested on: E. coli MG1655; conditions: MG1655, 20 h
[4] = tested on: E. faecium (isolate from the gut of the cow); conditions: 20 h
[5] = tested on: S. aureus DSM 11729 (MRSA); conditions: DSM 11729, 20 h
[6] = tested on: P. aeruginosa DSM 1117; conditions: DSM 1117, 20 h
[7] = tested on: A. baumannii (isolate from the human abdominal wall); conditions: 20 h
[8] = in vitro; conditions: human
[9] = tested on: S. pneumoniae D39; conditions: D39, 20 h
[10] = tested on: K. pneumoniae DSM 30104; conditions: DSM 30104, 20 h
[11] = tested on: Escherichia coli MG1655; assay: Outer membrane vesicle (OMV) release after AMP treatment; assay type: cell-based; conditions: ¼ MIC, 90 min
Protocol: Escherichia coli MG1655 was grown on MacConkey agar (Carl Roth, Karlsruhe, Germany) plates overnight. For overnight culture, a single colony was used for inoculation of 2 mL LB media at 37 °C, 160 rpm (MaxQ 6000, Thermo Fisher Scientific, Karlsruhe, Germany). Bacterial culture was transferred to 10 mL fresh LB media and incubated (1 h, 37 °C, 160 rpm). The required amount of bacteria was treated with ¼ MIC of the AMPs #3, #5, #10, #13, #15, #16, and #27, left untreated for control or was treated with acetic acid and BSA as solvent control (90 min, 37 °C, 160 rpm). Samples were centrifuged (4,500 x g, 15 min, 4 °C; Multifuge X3R, Thermo Fisher Scientific), the supernatant was sterile filtered (0.22 µm) and afterwards concentrated by the factor of 20 using 100 kDa molecular weight cut-off filters (Merck KGaA, Darmstadt, Germany). To determine the number of released vesicles, samples were measured by nano-flow cytometry (nFCM) using a NanoAnalyzer (NanoFCM Co., Ltd, Nottingham, UK)[64].

Molecule	increase in MIC during 21 days of serial passage [1]	B. subtilis MIC [2]	CC50	E. coli MIC [3]	MIC E. faecium [4]	MIC S. aureus (MRSA) [5]	MIC P. aeruginosa [6]	MIC A. baumannii [7]	CC50 at 24 h [8]	MIC S. pneumoniae [9]	MIC K. pneumoniae [10]	release of outer membrane vesicles (OMV) compared to untreated E. coli [11]
C[C@@H](O)[C@H]1C(=O)N2C(C(=O)O)=C(SCCN=CN)C[C@H]12 [imipenem]	up to 8 fold	–	–	–	–	–	–	–	–	–	–	–
H-MCFCFKAGPKICRGLQRKKKKFKYQTSFTKTGFGFLTKPKSPAR-NH2 (cysteines drawn unpaired) [AMP #10]	–	0.6 µM	105 µM	50.0 µM	–	–	–	–	–	–	–	–
H-MCFCRYRFFYRRRIRFFKWGPYFYVWFGFPFGRKAFFLSVFRRRFC-NH2 (cysteines drawn unpaired) [AMP #19]	–	8.4 µM	> 250 µM	25.0 µM	–	–	–	–	–	–	–	–
H-MCFFPRRKSKVKVKGGLCRLLFIFFKTTFCFKAKTKKEIKKGTGKKIVR-NH2 (cysteines drawn unpaired) [AMP #18]	–	3.1 µM	153 µM	50.0 µM	–	–	–	–	–	–	–	–
H-MKEKKFFFFCFKKRRGFYKRRFFCKTTCFTYCFYKPRGTKTMPYVFSE-NH2 (cysteines drawn unpaired) [AMP #14]	–	–	–	–	6.3 µM	25.0 µM	12.5 µM	25.0 µM	–	–	–	–
MEAFKKKPRLPLFKVKLTRFLERARGLGSYRIFEFFKKFGVKKFVSSLR-NH2 [AMP #15]	–	0.8 µM	–	25.0 µM	1.6 µM	–	12.5 µM	1.6 µM	30.7 µM	25.0 µM	1.6 µM	–
MKQPSKTKTHFKYFLLFLKSVKKVAGFKKKKKKYHWRSYKEGSCFRKRT-NH2 [AMP #13]	–	1.6 µM	–	25.0 µM	1.6 µM	–	12.5 µM	3.1 µM	25.8 µM	12.5 µM	6.3 µM	–
MRRKTPVKWKTFFKALKHKKKIFKKTFEKFKFLAKGPAFLKGFDQKLKS-NH2 [AMP #5]	–	0.5 µM	–	2.1 µM	1.6 µM	–	3.1 µM	1.0 µM	68.4 µM	25.0 µM	0.8 µM	–
polymyxin B	–	–	–	–	–	–	–	–	–	–	–	only significantly different group
